Test: xn = mol fraction of the nth substance listed

CC(=O)[O-].Cn1cc[n+](C)c1 + CCO
293.15 K, 101.3 kPa
Details	electrical conductivity [S/m]
x2 = 0	0.275
x2 = 0.0694	0.335
x2 = 0.1341	0.401
x2 = 0.2695	0.559
x2 = 0.4097	0.873
x2 = 0.5071	1.197
x2 = 0.6815	1.821
x2 = 0.7393	1.903
x2 = 0.7685	1.86
x2 = 0.7896	1.683
x2 = 0.8843	0.86
x2 = 0.9267	0.491
x2 = 0.9487	0.302
x2 = 0.9595	0.213
x2 = 0.9709	0.131

CC[n+]1ccn(C)c1.[I-] + CCO
Details	electrical conductivity [S/m]
298.15 K, 100 kPa, x1 = 0.4385	2.22

CC[N+](C)(CC)CCOC.F[B-](F)(F)F + CC[N+](C)(CC)CCOC.O=S(=O)([N-]S(=O)(=O)C(F)(F)F)C(F)(F)F
100 kPa
Details	electrical conductivity [S/m]
293.15 K, x2 = 0.1	0.112
298.15 K, x2 = 0.3	0.19
298.15 K, x2 = 0.7	0.227
298.15 K, x2 = 0.9	0.267
303.15 K, x2 = 0.9	0.341
308.15 K, x2 = 0.3	0.325
308.15 K, x2 = 0.5	0.356
313.15 K, x2 = 0.2	0.388
313.15 K, x2 = 0.3	0.409
313.15 K, x2 = 0.8	0.495
318.15 K, x2 = 0.4	0.525
318.15 K, x2 = 0.7	0.573
323.15 K, x2 = 0.2	0.595
323.15 K, x2 = 0.3	0.612
328.15 K, x2 = 0.2	0.722
328.15 K, x2 = 0.6	0.806
333.15 K, x2 = 0.1	0.892
333.15 K, x2 = 0.5	0.911
333.15 K, x2 = 0.7	0.948
338.15 K, x2 = 0.7	1.1
343.15 K, x2 = 0.2	1.19
343.15 K, x2 = 0.3	1.19
343.15 K, x2 = 0.8	1.25

CC1(C)CC(O)CC(C)(C)N1[O] + CC[N+](CC)(CC)CC.[Cl-] + O
323.15 K, 100 kPa, frequency 0.001 MHz
Details	electrical conductivity [S/m]
x1 = 0.091, x2 = 0.182	1.2
x1 = 0.167, x2 = 0.167	0.61
x1 = 0.2, x2 = 0	0.019
x1 = 0.286, x2 = 0.143	0.16

CC[NH+](CC)CC.O=[N+]([O-])[O-] + CC[NH3+].O=[N+]([O-])[O-]
101 kPa, frequency 0.00293 MHz
Details	electrical conductivity [S/m]
293.15 K, x1 = 0.149	1.28
293.15 K, x1 = 0.1997	1.15
293.15 K, x1 = 0.25	0.97
293.15 K, x1 = 0.2993	0.86
293.15 K, x1 = 0.3475	0.79
298.15 K, x1 = 0.149	1.52
303.15 K, x1 = 0.3475	1.12
313.15 K, x1 = 0.3995	1.38
313.15 K, x1 = 0.4472	1.23
323.15 K, x1 = 0.0999	3.31
323.15 K, x1 = 0.3995	1.8

101 kPa
Details	viscosity [mPa·s]
293.15 K, x1 = 0.149	55.3
293.15 K, x1 = 0.1997	62.8
293.15 K, x1 = 0.25	69.1
293.15 K, x1 = 0.2993	76.9
293.15 K, x1 = 0.3475	83.5
298.15 K, x1 = 0.149	45.3
303.15 K, x1 = 0.3475	54.8
313.15 K, x1 = 0.3995	40.8
313.15 K, x1 = 0.4472	44.4
323.15 K, x1 = 0.0999	19.7
323.15 K, x1 = 0.3995	29.1
323.15 K, x1 = 0.5003	33.1
328.15 K, x1 = 0.149	18.1
328.15 K, x1 = 0.3995	25.1
328.15 K, x1 = 0.5003	28.3
328.15 K, x1 = 0.5485	27.4
333.15 K, x1 = 0.1997	17.5
333.15 K, x1 = 0.5003	24.7
333.15 K, x1 = 0.5485	23.9
338.15 K, x1 = 0.2993	17.3
338.15 K, x1 = 0.4472	20.3
343.15 K, x1 = 0.0499	11.6
343.15 K, x1 = 0.2993	15.3
348.15 K, x1 = 0.0999	11.1
348.15 K, x1 = 0.2993	13.7
348.15 K, x1 = 0.4472	15.7
353.15 K, x1 = 0.2993	12.4

CNC=O + CC[n+]1ccn(C)c1.F[B-](F)(F)F
298 K, 101 kPa
Details	electrical conductivity [S/m]
x1 = 0.21	2.08
x1 = 0.47	2.73
x1 = 0.66	2.95

CC[n+]1ccn(C)c1.C[C@H](N)C(=O)[O-] + CC[n+]1ccn(C)c1.N#C[C-](C#N)C#N
101 kPa, x2 = 0
Details	viscosity [mPa·s]
308.15 K	137.5
313.15 K	103.5

CCCCn1cc[n+](CCOCC[n+]2ccn(CCCC)c2)c1.N#C[N-]C#N.N#C[N-]C#N + CC[n+]1ccn(C)c1.N#C[N-]C#N + O=S(=O)([N-]S(=O)(=O)C(F)(F)F)C(F)(F)F.[Li+]
100 kPa, x1 = 0.2561, x2 = 0.6541
Details	electrical conductivity [S/m]
298 K	0.527
303 K	0.737
313 K	0.921
323 K	1.35
333 K	1.74
343 K	2.13

CC[S+](CC)CCOCCOCC[S+](CC)CC.N#C[N-]C#N.N#C[N-]C#N + CC[n+]1ccn(C)c1.N#C[N-]C#N + O=S(=O)([N-]S(=O)(=O)C(F)(F)F)C(F)(F)F.[Li+]
100 kPa, x1 = 0.2666, x2 = 0.6449
Details	electrical conductivity [S/m]
298 K	0.501
303 K	0.604
313 K	0.841
323 K	1.13
333 K	1.44
343 K	1.72

O=S(=O)([O-])C(F)(F)F.[Li+] + CC[n+]1ccn(C)c1.O=S(=O)([N-]S(=O)(=O)C(F)(F)F)C(F)(F)F
electrical conductivity [S/m], 101 kPa
Details	288.15 K	298.15 K	333.15 K
x1 = 0.01919	0.57	0.819	2
x2 = 0.9274	–	0.672	1.71
x2 = 0.9587	0.515	0.766	1.93

O=S(=O)([O-])C(F)(F)F.[Li+] + CC[n+]1ccn(C)c1.O=S(=O)([O-])C(F)(F)F
electrical conductivity [S/m], 101 kPa
Details	x1 = 0.007746	x1 = 0.01537	x2 = 0.9697	x2 = 0.9746
288.15 K	0.625	0.568	–	0.535
298.15 K	0.904	0.837	0.775	0.792
333.15 K	2.31	2.14	2.02	2.05

CC[n+]1ccn(C)c1.O=S(=O)([O-])C(F)(F)F + CN(C)C=O
100 kPa
Details	viscosity [mPa·s]
298.15 K, x2 = 0.1933	28.54
303.15 K, x2 = 0.406	12.55
308.15 K, x2 = 0.406	10.91
313.15 K, x2 = 0.5976	4.5
313.15 K, x2 = 0.7981	2.03
318.15 K, x2 = 0.0917	19.61
318.15 K, x2 = 0.1933	15.46
318.15 K, x2 = 0.2995	11.68
318.15 K, x2 = 0.6947	2.6
323.15 K, x2 = 0.6947	2.42

CC[n+]1ccn(C)c1.O=S(=O)([O-])C(F)(F)F + CN(C)C=O + OCCO
viscosity [mPa·s], 100 kPa
Details	298.15 K	303.15 K	308.15 K	313.15 K	318.15 K	323.15 K
x2 = 0.0208, x3 = 0.1868	29.3	24.8	21.15	18.23	15.83	13.8
x2 = 0.0306, x3 = 0.198	27.9	23.6	20.16	17.39	15.11	13.18
x2 = 0.0398, x3 = 0.2206	25.8	21.9	18.69	16.15	14.06	12.27
x2 = 0.0679, x3 = 0.2281	23.5	20	17.13	14.83	12.93	11.29
x2 = 0.0847, x3 = 0.2475	21.3	18.2	15.61	13.54	11.83	10.34
x2 = 0.1005, x3 = 0.2658	19.4	16.5	14.24	12.39	10.85	9.48
x2 = 0.1248, x3 = 0.2717	17.7	15.2	13.09	11.41	10.01	8.76
x2 = 0.1637, x3 = 0.2744	15.6	13.4	11.59	10.14	8.92	7.81
x2 = 0.1852, x3 = 0.2798	14.3	12.3	10.67	9.35	8.25	7.23
x2 = 0.2057, x3 = 0.2849	13.1	11.3	9.84	8.64	7.64	6.7
x2 = 0.2567, x3 = 0.2666	11.6	10.1	8.83	7.78	6.9	6.06
x2 = 0.3179, x3 = 0.2469	9.96	8.69	7.63	6.76	6.02	5.29
x2 = 0.3633, x3 = 0.2306	8.7	7.63	6.74	6	5.34	4.85
x2 = 0.4128, x3 = 0.2106	7.83	6.89	6.11	5.45	4.89	4.31
x2 = 0.469, x3 = 0.1967	6.48	5.75	5.13	4.61	4.16	3.68
x2 = 0.5074, x3 = 0.1828	5.85	5.22	4.68	4.22	3.85	3.19
x2 = 0.5624, x3 = 0.1668	4.75	4.27	3.86	3.51	3.19	2.84
x2 = 0.6135, x3 = 0.152	3.92	3.55	3.24	2.96	2.71	2.43
x2 = 0.6611, x3 = 0.1382	3.32	3.02	2.76	2.53	2.32	2.15
x2 = 0.7126, x3 = 0.1243	2.61	2.41	2.23	2.07	1.92	1.74
x2 = 0.7536, x3 = 0.1124	2.33	2.14	1.98	1.83	1.7	1.58
x2 = 0.7982, x3 = 0.1005	1.83	1.7	1.59	1.49	1.4	1.29
x2 = 0.8449, x3 = 0.0889	1.53	1.42	1.33	1.24	1.17	1.09
x2 = 0.8948, x3 = 0.0712	1.22	1.14	1.07	1.01	0.95	0.89

CCCC[n+]1ccn(C)c1.N[C@@H](CC(=O)O)C(=O)[O-] + CO
101 kPa
Details	electrical conductivity [S/m]
298.15 K, x2 = 0.2999	0.101
298.15 K, x2 = 0.5015	0.161
298.15 K, x2 = 0.7957	0.64
298.15 K, x2 = 0.8988	1.13
303.15 K, x2 = 0.1999	0.108
303.15 K, x2 = 0.5949	0.241
303.15 K, x2 = 0.6969	0.377
308.15 K, x2 = 0.398	0.218
308.15 K, x2 = 0.6969	0.496
308.15 K, x2 = 0.9214	1.39
308.15 K, x2 = 0.975	1.36
318.15 K, x2 = 0.1999	0.212
318.15 K, x2 = 0.5015	0.378
318.15 K, x2 = 0.7957	0.98
318.15 K, x2 = 0.8988	1.42

CCc1n(S(=O)(=O)O)cc[n+]1S(=O)(=O)O.O=C([O-])C(F)(F)F + CO
electrical conductivity [S/m], 101 kPa
Details	283.15 K	293.15 K	298.15 K	313.15 K
x1 = 0.0052	–	–	1.51	–
x1 = 0.0255	–	–	3.08	–
x1 = 0.02551	3.57	3.28	3.08	2.7

Cc1n(S(=O)(=O)O)cc[n+]1S(=O)(=O)O.O=C([O-])C(F)(F)F + CO
Details	electrical conductivity [S/m]
298.15 K, 101 kPa, x1 = 0.0104	1.52

O=C([O-])C(F)(F)F.O=S(=O)(O)n1cc[n+](S(=O)(=O)O)c1 + CO
electrical conductivity [S/m], 101 kPa
Details	288.15 K	298.15 K	308.15 K	313.15 K	333.15 K
x1 = 0.0052	–	1.85	–	–	–
x1 = 0.02551	4.64	–	3.89	3.76	3.25

Reference: the CheMixHub ionic liquid set
